These results are taken from publication PMC4608773, “Elisidepsin Interacts Directly with Glycosylceramides in the Plasma Membrane of Tumor Cells to Induce Necrotic Cell Death” (PLoS ONE, 2015).

Read-outs that look alike come from different tables or passages of the source.

The test system of assay [1] is HCT-116-Irv cells (elisidepsin-resistant subline). The assay can be described thus: cells. The settings on record: for IC50: read-out: HCT-116-Irv (IC50), cell growth half-maximal inhibitory concentration; for RR (resistance ratio): fold change between IC50 values from HCT-116-Irv and HCT-116: negative values where HCT-116-Irv is the more sensitive line. Here is the method: B16 and GM95 cells were maintained in DMEM with the same supplements and conditions.
(§1) Cells were seeded in 96-well microtiter plates and maintained at 37°C and 5% CO2 in drug-free medium before treatment with vehicle alone or elisidepsin at the concentrations and times indicated in the text. For cell survival quantification, a colorimetric assay using SRB was used. Briefly, after treatment, cells were washed twice with phosphate buffered saline (PBS), fixed for 25 min in 1% glutaraldehyde solution, rinsed twice with PBS, stained in 0.4% SRB-1% acetic acid solution for 30 min, rinsed several times with 1% acetic acid solution, and air-dried. […] Results are expressed as percentage of control cell survival and represent the mean of at least three independent experiments. IC50, half-maximal inhibitory concentration, was used as a reference value.

A further assay concerns HCT-116 cells. Description: cells. The protocol:
as §1

In the next assay the test system is B16 cells. Description: Cell viability assay (SRB colorimetric). The format is cell-based, mouse. The protocol: as §1
The subject of assay [2] is GM95 cells (UGCG-deficient B16 mutant). Description: Cell viability assay (SRB colorimetric). The format is cell-based, mouse. The settings on record: for IC50: read-out: GM95 (IC50), cell growth half-maximal inhibitory concentration; for RR: fold change between IC50 values from GM95 and B16: negative values where GM95 is the more sensitive line. The protocol: as §1
Another assay addresses Elisidepsin. The assay can be described thus: FRET or BRET; two-photon FLIM-FRET, phasor analysis, on live HCT-116 cells in Tyrode-glucose buffer; mix of donor Irv-OG488 200 nM, acceptor Irv-A555 800 nM and elisidepsin 3 μM added to the cells; assemblies seen in the plasma membrane.
[3] abbreviates: Homo sapiens, HCT-116, read-out: HCT-116 (IC50), cell growth half-maximal inhibitory concentration.
[4] abbreviates: SRB assay, 96-well, mean of three different experiments, exposure time not given.
Where [5] appears, read: read-out: HCT-116 (IC50), cell growth half-maximal inhibitory concentration, SRB assay, 96-well, mean of three different experiments, exposure time not given.
Setting [6] is: SRB assay, mean of three different experiments, read-out: B16 (IC50), cell growth half-maximal inhibitory concentration.
Setting [7] is: SRB assay, mean of three different experiments.
Where [8] appears, read: Mus musculus, B16, read-out: B16 (IC50), cell growth half-maximal inhibitory concentration.

For `O=c1[nH]cc(F)c(=O)[nH]1` [5-FU, 5-fluorouracil], the values for the IC50 (in assay [1] (Homo sapiens); in the assay with HCT-116 cells (setting [3])) were 11000 nM and 4000 nM, respectively. For the same compound, the “RR (resistance ratio): fold change between IC50 values from HCT-116-Irv and HCT-116” value in assay [1] was 2.8.

On to `C[C@@H]1[C@H](O)[C@@H](C)/C=C/C=C/C=C/C=C/C=C/C=C/C=C/[C@H](O[C@@H]2O[C@H](C)[C@@H](O)[C@H](N)[C@@H]2O)C[C@@H]2O[C@](O)(C[C@@H](O)C[C@@H](O)[C@H](O)CC[C@@H](O)C[C@@H](O)CC(=O)O[C@H]1C)C[C@H](O)[C@H]2C(=O)O` [Amphotericin B], for which the IC50 in assay [1] (Homo sapiens) was found to be 6100 nM; with HCT-116 cells (setting [3]) it was 5200 nM. Also, the “RR (resistance ratio): fold change between IC50 values from HCT-116-Irv and HCT-116” value in assay [1] was determined as 1.2.

Turning to `N.N.[Cl][Pt][Cl]` [Cisplatin], in assay [1], the “RR (resistance ratio): fold change between IC50 values from HCT-116-Irv and HCT-116” value was -2.7. Moreover, the IC50 in assay [1] (setting [4]) was 3600 nM; with HCT-116 cells (setting [5]) it was 9800 nM; in the assay on B16 cells (setting [6]), 18000 nM; in assay [2] (setting [7]) it was 9400 nM. The “RR: fold change between IC50 values from GM95 and B16” value (from here on “RR: fold change between IC50 values”) in assay [2] is -2.0.

Take `COc1cc2c(c(OC)c1OC)-c1ccc(OC)c(=O)cc1[C@@H](NC(C)=O)CC2` [Colchicine]: the figures for the IC50 (in assay [1] (Homo sapiens); in the assay on HCT-116 cells (setting [3])) were 2.8 nM and 3.9 nM, respectively.

As for `CC(=O)O[C@@]12CO[C@@H]1C[C@H](O)[C@@]1(C)C(=O)[C@H](O)C3=C(C)[C@@H](OC(=O)[C@H](O)[C@@H](NC(=O)OC(C)(C)C)c4ccccc4)C[C@@](O)([C@@H](OC(=O)c4ccccc4)[C@H]21)C3(C)C` [Docetaxel], the IC50 in assay [1] (Homo sapiens) came to 1.8 nM; in the assay with HCT-116 cells (setting [3]), 2.9 nM.

In the case of `COc1cccc2c1C(=O)c1c(O)c3c(c(O)c1C2=O)C[C@@](O)(C(=O)CO)C[C@@H]3O[C@H]1C[C@H](N)[C@H](O)[C@H](C)O1` [Doxorubicin], the IC50 is 99 nM in assay [1] (Homo sapiens), 140 nM in the assay with HCT-116 cells (setting [3]), 180 nM with B16 cells (setting [8]) and 94 nM in assay [2] (Mus musculus). Also, the “RR: fold change between IC50 values” value in assay [2] is on record as -1.9.

Take `CCCCCCCCCCCCCCCCCCOCC(COP(=O)([O-])OCC[N+](C)(C)C)OC` (stereo not shown) [Edelfosine]: the IC50 (in assay [1] (Homo sapiens); in the assay with HCT-116 cells (setting [3])) was 29000 nM each time. In addition, the “RR (resistance ratio): fold change between IC50 values from HCT-116-Irv and HCT-116” value in assay [1] is listed as 1.0.

For the compound `C/C(=C\c1csc(C)n1)[C@@H]1C[C@@H]2O[C@]2(C)CCC[C@H](C)[C@H](O)[C@@H](C)C(=O)C(C)(C)[C@@H](O)CC(=O)O1` [Epothilone B], the IC50 in assay [1] (Homo sapiens) worked out at 3.9 nM; with HCT-116 cells (setting [3]), 2.2 nM. In assay [1], the “RR (resistance ratio): fold change between IC50 values from HCT-116-Irv and HCT-116” value is recorded as 1.8.

Regarding `C#Cc1cccc(Nc2ncnc3cc(OCCOC)c(OCCOC)cc23)c1` [Erlotinib], the IC50 in assay [1] (Homo sapiens) stood at 16000 nM; with HCT-116 cells (setting [3]), 32000 nM.

Consider `COc1cc([C@@H]2c3cc4c(cc3[C@@H](O[C@@H]3O[C@@H]5CO[C@@H](C)O[C@H]5[C@H](O)[C@H]3O)[C@H]3COC(=O)[C@H]23)OCO4)cc(OC)c1O` [Etoposide], for which the IC50 in assay [1] (Homo sapiens) was found to be 960 nM; in the assay with HCT-116 cells (setting [3]) it was 1200 nM.

Turning to `Nc1ccn([C@@H]2O[C@H](CO)[C@@H](O)C2(F)F)c(=O)n1` [Gemcitabine], the IC50 in assay [1] (Homo sapiens) turned out to be 0.67 nM; with HCT-116 cells (setting [3]), 0.63 nM; in the assay with B16 cells (Mus musculus, B16, SRB assay, mean of three different experiments, read-out: B16 (IC50), cell growth half-maximal inhibitory concentration), 5.6 nM; in assay [2] (Mus musculus, SRB assay, mean of three different experiments), 8.1 nM. Moreover, the “RR (resistance ratio): fold change between IC50 values from HCT-116-Irv and HCT-116” value in assay [1] was found to be 1.1. Besides, the “RR: fold change between IC50 values” value in assay [2] is 1.4.

As for `CN(Cc1cnc2nc(N)nc(N)c2n1)c1ccc(C(=O)N[C@@H](CCC(=O)O)C(=O)O)cc1` [Methotrexate], the IC50 worked out at 77 nM in assay [1] (Homo sapiens), 37 nM in the assay with HCT-116 cells (setting [3]), 500 nM in the assay with B16 cells (setting [8]) and 370 nM in assay [2] (Mus musculus). Besides, the “RR (resistance ratio): fold change between IC50 values from HCT-116-Irv and HCT-116” value in assay [1] stood at 2.1. Further, the “RR: fold change between IC50 values” value in assay [2] is on record as -1.4.

Regarding `CO[C@@]12[C@H](COC(N)=O)C3=C(C(=O)C(C)=C(N)C3=O)N1C[C@@H]1N[C@@H]12` [Mitomycin C], the IC50 in assay [1] (Homo sapiens) amounted to 300 nM; in the assay with HCT-116 cells (setting [3]), 330 nM; in the assay on B16 cells (setting [8]) it was 5700 nM; in assay [2] (Mus musculus) it was 2500 nM. Also, the “RR: fold change between IC50 values” value in assay [2] is -2.3.

Regarding `CC(=O)O[C@H]1C(=O)[C@@]2(C)[C@H]([C@H](OC(=O)c3ccccc3)[C@]3(O)C[C@H](OC(=O)[C@H](O)[C@@H](NC(=O)c4ccccc4)c4ccccc4)C(C)=C1C3(C)C)[C@]1(OC(C)=O)CO[C@@H]1C[C@@H]2O` [Paclitaxel], the IC50 in assay [1] (Homo sapiens) stood at 8.3 nM; in the assay with HCT-116 cells (setting [3]), 6.9 nM; with B16 cells (setting [8]) it was 15 nM; in assay [2] (Mus musculus), 34 nM. Moreover, the “RR (resistance ratio): fold change between IC50 values from HCT-116-Irv and HCT-116” value in assay [1] came out at 1.2. In addition, in assay [2], the “RR: fold change between IC50 values” value is on record as 2.2.

As for `CC[C@]1(O)C[C@@H]2CN(CCc3c([nH]c4ccccc34)[C@@](C(=O)OC)(c3cc4c(cc3OC)N(C)[C@H]3[C@@](O)(C(=O)OC)[C@H](OC(C)=O)[C@]5(CC)C=CCN6CC[C@]43[C@@H]65)C2)C1` [Vinblastine], the figures for the IC50 (in assay [1] (Homo sapiens); with HCT-116 cells (setting [3])) were 0.41 nM and 0.32 nM, respectively. The “RR (resistance ratio): fold change between IC50 values from HCT-116-Irv and HCT-116” value in assay [1] came to 1.3.

On to `CCC1=C[C@@H]2CN(C1)Cc1c([nH]c3ccccc13)[C@@](C(=O)OC)(c1cc3c(cc1OC)N(C)[C@H]1[C@@](O)(C(=O)OC)[C@H](OC(C)=O)[C@]4(CC)C=CCN5CC[C@]31[C@@H]54)C2` [Vinorelbine], for which the results for the IC50 (in assay [1] (Homo sapiens); in the assay with HCT-116 cells (setting [3])) were 190 nM and 160 nM, respectively. Also, in assay [1], the “RR (resistance ratio): fold change between IC50 values from HCT-116-Irv and HCT-116” value worked out at 1.1.

Take Elisidepsin (peptide): in the assay with Elisidepsin, the FRET efficiency was determined as 60%.

Take Syringomycin E: the “RR (resistance ratio): fold change between IC50 values from HCT-116-Irv and HCT-116” value in assay [1] is reported as -1.4. The IC50 amounted to 15000 nM in assay [1] (setting [4]), 20000 nM in the assay on HCT-116 cells (setting [5]), 11000 nM in the assay on B16 cells (setting [6]) and 9000 nM in assay [2] (setting [7]). The “RR: fold change between IC50 values” value in assay [2] is listed as -1.3.
